Data taken from patent US10106501B2, “Nuclear receptor modulators” (AbbVie Inc., priority 2015, dated 2018).
pIC50: −log10 of the molar value.

Molecular target: T1, chimeric human RORγ-Gal4 receptor (Homo sapiens, UniProt P51449)
T1 sequence (P51449 269-508 limits assumed): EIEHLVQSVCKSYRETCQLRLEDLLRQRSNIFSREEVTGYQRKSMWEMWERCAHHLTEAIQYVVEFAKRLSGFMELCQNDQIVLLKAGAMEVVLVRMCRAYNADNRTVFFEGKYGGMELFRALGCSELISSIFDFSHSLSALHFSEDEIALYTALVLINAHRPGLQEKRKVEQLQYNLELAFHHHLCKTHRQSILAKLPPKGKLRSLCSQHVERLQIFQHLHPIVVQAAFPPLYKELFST
Assay: transient transactivation assay (RORγ-Gal4 luciferase reporter)
Type: cell-based
Details: Cos-7 cells transfected with RORγ-Gal4 and 5Gal4 pGL3 TK Luc reporter; overnight incubation; T0901317 at 10^-5 M as reference; read-out: IC50

Structure (SMILES)	pIC50
Cc1cc(C(F)(F)F)cc2c1cc(C(=O)c1c(Cl)ccc(C(=O)N3CC[C@H](C(=O)O)[C@H](C)C3)c1Cl)n2C (racemic) [AQ-3]	> 7.00
Cc1cc(C#N)cc2c1cc(Cc1c(Cl)ccc(O[C@H]3CC[C@@H](C(=O)O)C3)c1Cl)n2C (relative stereo) [Example AG1, cis-3-(2,4-dichloro-3-((6-cyano-1,4-dimethyl-1H-indol-2-yl)methyl)phenoxy)cyclopentanecarboxylic acid]	6.00 to 6.30
Cc1cc(C#N)cc2c1cc(Cc1c(Cl)ccc(O[C@H]3CC[C@H](C(=O)O)C3)c1Cl)n2C (relative stereo) [Example AG, trans-3-(2,4-dichloro-3-((6-cyano-1,4-dimethyl-1H-indol-2-yl)methyl)phenoxy)cyclopentanecarboxylic acid]	6.30 to 7.00
COCCN1CCN(C(=O)c2ccc(Cl)c(Cc3cc4c(C)cc(C(F)(F)F)cc4n3C)c2Cl)CC1 [A, (2,4-dichloro-3-((1,4-dimethyl-6-(trifluoromethyl)-1H-indol-2-yl)methyl)phenyl)(4-(2-methoxyethyl)piperazin-1-yl)methanone]	> 7.00
Cc1cc(C#N)cc2c1cc(Cc1c(Cl)ccc(C(=O)N3CCC(C(C)O)CC3)c1Cl)n2C (stereo not shown) [AA-1]	> 7.00
Cc1cc(C#N)cc2c1cc(Cc1c(Cl)ccc(C(=O)N3CCCC(O)C3)c1Cl)n2C (stereo not shown) [AA-5]	6.30 to 7.00
Cc1cc(C#N)cc2c1cc(Cc1c(Cl)ccc(C(=O)N3CCC(N(C)C)CC3)c1Cl)n2C [AA-6]	6.30 to 7.00
Cc1cc(C#N)cc2c1cc(Cc1c(Cl)ccc(C(=O)N3CCC(C(C)(C)CO)CC3)c1Cl)n2C [AA-8]	> 7.00
Cc1cc(C#N)cc2c1cc(Cc1c(Cl)ccc(C(=O)N3CCN(C)C(C)C3)c1Cl)n2C (stereo not shown) [AA-10]	6.30 to 7.00
Cc1cc(C#N)cc2c1cc(Cc1c(Cl)ccc(C(=O)N3CCN(C(C)C)CC3)c1Cl)n2C [AA-11]	> 7.00
Cc1cc(C#N)cc2c1cc(Cc1c(Cl)ccc(C(=O)N3CCCN(CCO)CC3)c1Cl)n2C [AA-13]	6.30 to 7.00
Cc1cc(C#N)cc2c1cc(Cc1c(Cl)ccc(C(=O)N3CCC(N(C)C)C3)c1Cl)n2C (stereo not shown) [AA-14]	6.30 to 7.00
Cc1cc(C#N)cc2c1cc(Cc1c(Cl)ccc(C(=O)N3CC(N4CCCC4)C3)c1Cl)n2C [AA-16]	6.30 to 7.00
Cc1cc(C#N)cc2c1cc(Cc1c(Cl)ccc(C(=O)N3CCC(CO)C3)c1Cl)n2C (stereo not shown) [AA-19]	6.30 to 7.00
Cc1cc(C#N)cc2c1cc(Cc1c(Cl)ccc(C(=O)N3CC(O)C3)c1Cl)n2C [AA-20]	6.30 to 7.00
COC1CN(C(=O)c2ccc(Cl)c(Cc3cc4c(C)cc(C#N)cc4n3C)c2Cl)C1 [AA-21]	6.30 to 7.00
Cc1cc(C#N)cc2c1cc(Cc1c(Cl)ccc(C(=O)NC3CCC(O)CC3)c1Cl)n2C (stereo not shown) [AA-22]	6.30 to 7.00
Cc1cc(C#N)cc2c1cc(Cc1c(Cl)ccc(C(=O)NC3CCOCC3)c1Cl)n2C [AA-23]	6.00 to 6.30
Cc1cc(C#N)cc2c1cc(Cc1c(Cl)ccc(C(=O)NC3COC3)c1Cl)n2C [AA-24]	6.30 to 7.00
Cc1cc(C#N)cc2c1cc(Cc1c(Cl)ccc(C(=O)N3CCC4(CC3)COC4)c1Cl)n2C [AA-25]	6.30 to 7.00
Cc1cc(C#N)cc2c1cc(Cc1c(Cl)ccc(C(=O)N3CC4(COC4)C3)c1Cl)n2C [AA-26]	6.30 to 7.00
CNC(=O)[C@@H]1CCCN1C(=O)c1ccc(Cl)c(Cc2cc3c(C)cc(C#N)cc3n2C)c1Cl [AA-32]	6.30 to 7.00
Cc1cc(C#N)cc2c1cc(C(=O)c1c(Cl)ccc(C(=O)N3CC(O)C3)c1Cl)n2C [AN-1]	6.00 to 6.30
Cc1cc(C(F)(F)F)cc2c1cc(C(=O)c1c(Cl)ccc(C(=O)N3CCC(C4COC4)CC3)c1Cl)n2C [AP-6]	> 7.00

Structure (SMILES)	pIC50
Cc1cc(C(F)(F)F)cc2c1cc(C(=O)c1c(Cl)ccc(C(=O)N3C[C@@H]4[C@H](C3)[C@H]4C(=O)O)c1Cl)n2C [AQ-2]	6.30 to 7.00
Cc1cc(C(F)(F)F)cc2c1cc(C(=O)c1c(Cl)ccc(C(=O)N3CC[C@H](C(=O)O)[C@H](C)C3)c1Cl)n2C [AQ-4]	> 7.00
Cc1cc(C(F)(F)F)cc2c1cc(C(=O)c1c(Cl)ccc(C(=O)N3CC[C@@H](C(=O)O)[C@@H](C)C3)c1Cl)n2C [AQ-5]	> 7.00
Cc1cc(C(F)(F)F)cc2c1cc(Cc1c(Cl)ccc(C(=O)N3CCC(C(=O)O)CC3)c1Cl)n2C [B, 1-(2,4-dichloro-3-((1,4-dimethyl-6-(trifluoromethyl)-1H-indol-2-yl)methyl)benzoyl)piperidine-4-carboxylic acid]	> 7.00
Cc1cc(C#N)cc2c1cc(Cc1c(Cl)cnc(C(=O)N3CCC(C4COC4)CC3)c1Cl)n2C [BF-1]	> 7.00
Cc1cc(C#N)cc2c1cc(Cc1c(Cl)cnc(C(=O)N3CCC(O)CC3)c1Cl)n2C [BF-2]	6.30 to 7.00
Cc1cc(C#N)cc2c1cc(Cc1c(Cl)cnc(C(=O)N3CCN(C4COC4)CC3)c1Cl)n2C [BF-4]	6.30 to 7.00
Cc1cc(C(F)(F)F)cc2c1cc(Cc1c(Cl)ncc(C(=O)N3CCC(O)(CCO)CC3)c1Cl)n2C [BH-2]	6.30 to 7.00
CNC(=O)[C@@H]1CCCN1C(=O)c1ccc(Cl)c(Cc2nc3c(C)cc(C(F)(F)F)cc3n2C)c1Cl [BJ-1]	5.00 to 6.00
Cc1cc(C(F)(F)F)cc2c1nc(Cc1c(Cl)ccc(C(=O)N3CCC4(CCOC4)CC3)c1Cl)n2C [BJ-8]	> 7.00
Cc1cc(C(F)(F)F)cc2c1nc(Cc1c(Cl)ccc(C(=O)N3CCC(C(C)(C)O)CC3)c1Cl)n2C [BJ-9]	6.30 to 7.00
Cc1cc(C(F)(F)F)cc2c1nc(Cc1c(Cl)ccc(C(=O)N3CCC(C(C)(C)CO)CC3)c1Cl)n2C [BJ-10]	> 7.00
Cc1cc(C(F)(F)F)cc2c1nc(Cc1c(Cl)ccc(C(=O)N3CCC(C(C)O)CC3)c1Cl)n2C (stereo not shown) [BJ-12]	> 7.00
COCC1CCN(C(=O)c2ccc(Cl)c(Cc3nc4c(C)cc(C(F)(F)F)cc4n3C)c2Cl)CC1 [BJ-13]	6.30 to 7.00
Cc1cc(C(F)(F)F)cc2c1nc(Cc1c(Cl)ccc(C(=O)N3CCC(CC(C)(C)O)CC3)c1Cl)n2C [BJ-14]	6.30 to 7.00
Cc1cc(C(F)(F)F)cc2c1nc(Cc1c(Cl)ccc(C(=O)N3CCC(CCO)CC3)c1Cl)n2C [BJ-16]	6.30 to 7.00
Cc1cc(C(F)(F)F)cc2c1nc(Cc1c(Cl)ccc(C(=O)N3CCC(C4COC4)CC3)c1Cl)n2C [BJ-17]	> 7.00
COCCC1CCN(C(=O)c2ccc(Cl)c(Cc3nc4c(C)cc(C(F)(F)F)cc4n3C)c2Cl)CC1 [BJ-18]	> 7.00
Cc1cc(C(F)(F)F)cc2c1nc(Cc1c(Cl)ccc(C(=O)N3CCC(CC(C)O)CC3)c1Cl)n2C (stereo not shown) [BJ-19]	6.30 to 7.00
COC1CCC(NC(=O)c2ccc(Cl)c(Cc3nc4c(C)cc(C(F)(F)F)cc4n3C)c2Cl)CC1 (stereo not shown) [BJ-22]	6.30 to 7.00
Cc1cc(C(F)(F)F)cc2c1nc(Cc1c(Cl)ccc(C(=O)N3CCC4(CC3)COC4)c1Cl)n2C [BJ-25]	6.00 to 6.30
Cc1cc(C(F)(F)F)cc2c1nc(Cc1c(Cl)ccc(C(=O)N3CC4(COC4)C3)c1Cl)n2C [BJ-28]	5.00 to 6.00
Cc1cc(C(F)(F)F)cc2c1nc(Cc1c(Cl)ccc(C(=O)N3CCC(N(C)C)CC3)c1Cl)n2C [BJ-30]	6.30 to 7.00
Cc1cc(C(F)(F)F)cc2c1nc(Cc1c(Cl)ccc(C(=O)N3CCN(C)C(C)C3)c1Cl)n2C (stereo not shown) [BJ-31]	5.00 to 6.00

Structure (SMILES)	pIC50
Cc1cc(C(F)(F)F)cc2c1nc(Cc1c(Cl)ccc(C(=O)N3CCN(C4COC4)CC3)c1Cl)n2C [BJ-38]	6.30 to 7.00
Cc1cc(C(F)(F)F)cc2c1nc(Cc1c(Cl)ccc(C(=O)N3CCN(C(C)C)CC3)c1Cl)n2C [BJ-40]	6.30 to 7.00
COCCC1CCN(C(=O)c2ccc(Cl)c(Cc3nc4c(C)cc(C#N)cc4n3C)c2Cl)CC1 [BN-3]	6.30 to 7.00
Cc1cc(C#N)cc2c1nc(Cc1c(Cl)ccc(C(=O)N3CCC(C(C)(C)CO)CC3)c1Cl)n2C [BN-6]	6.30 to 7.00
Cc1cc(C#N)cc2c1nc(Cc1c(Cl)ccc(C(=O)N3CCC(C(C)(C)O)CC3)c1Cl)n2C [BN-7]	6.30 to 7.00
Cc1cc(C#N)cc2c1nc(Cc1c(Cl)ccc(C(=O)N3CCC4(CCOC4)CC3)c1Cl)n2C [BN-8]	6.30 to 7.00
Cc1cc(C#N)cc2c1nc(Cc1c(Cl)ccc(C(=O)N3CCN(C4COC4)CC3)c1Cl)n2C [BN-11]	6.00 to 6.30
Cc1cc(C#N)cc2c1nc(Cc1c(Cl)ccc(C(=O)N3CCC(C4COC4)CC3)c1Cl)n2C [BN-12]	6.30 to 7.00
Cc1cc(C#N)cc2c1nc(Cc1c(Cl)ccc(C(=O)N3CCC(N(C)C)CC3)c1Cl)n2C [BN-14]	5.00 to 6.00
Cc1cc(C#N)cc2c1nc(Cc1c(Cl)ccc(C(=O)N3CCC(CC(C)(C)O)CC3)c1Cl)n2C [BN-16]	6.00 to 6.30
Cc1cc(C(F)(F)F)cc2c1nc(Cc1c(Cl)ccc(CN3CCC(C4COC4)CC3)c1Cl)n2C [BW-1]	6.30 to 7.00
COC1CCN(Cc2ccc(Cl)c(Cc3nc4c(C)cc(C(F)(F)F)cc4n3C)c2Cl)CC1 [BW-2]	6.30 to 7.00
COCC1CCN(Cc2ccc(Cl)c(Cc3nc4c(C)cc(C(F)(F)F)cc4n3C)c2Cl)CC1 [BW-3]	6.30 to 7.00
Cc1cc(C(F)(F)F)cc2c1nc(Cc1c(Cl)ccc(CN3CCC(O)CC3)c1Cl)n2C [BW-4]	6.30 to 7.00
Cc1cc(C(F)(F)F)cc2c1nc(Cc1c(Cl)ccc(CN3CCCC(O)C3)c1Cl)n2C (stereo not shown) [BW-5]	6.30 to 7.00
Cc1cc(C(F)(F)F)cc2c1nc(Cc1c(Cl)ccc(CN3CCC(C(C)(C)CO)CC3)c1Cl)n2C [BW-6]	6.30 to 7.00
Cc1cc(C(F)(F)F)cc2c1nc(Cc1c(Cl)ccc(CN3CCC(C(C)(C)O)CC3)c1Cl)n2C [BW-7]	6.30 to 7.00
Cc1cc(C(F)(F)F)cc2c1nc(Cc1c(Cl)ccc(CN3CCC4(CCOC4)CC3)c1Cl)n2C [BW-8]	6.30 to 7.00
COCCN1CCN(Cc2ccc(Cl)c(Cc3nc4c(C)cc(C(F)(F)F)cc4n3C)c2Cl)CC1 [BW-9]	6.30 to 7.00
Cc1cc(C(F)(F)F)cc2c1nc(Cc1c(Cl)ccc(CN3CCOCC3)c1Cl)n2C [BW-10]	6.30 to 7.00
Cc1cc(C(F)(F)F)cc2c1nc(Cc1c(Cl)ccc(CN3CCC(CCO)CC3)c1Cl)n2C [BW-11]	6.30 to 7.00
Cc1cc(C(F)(F)F)cc2c1nc(Cc1c(Cl)ccc(CN3CCC(CC(C)(C)O)CC3)c1Cl)n2C [BW-12]	6.00 to 6.30
